Measured values from US6524584B2, “Saponin compositions and uses thereof” (priority 1996, dated 2003).

How the values were obtained:
E.G7-OVA target cells = assay: Cytotoxic T-lymphocyte (CTL) assay, 51Cr release, splenic effector cells from immunized mice; format: in vivo, C57BL/6 mice; settings: s.c. with ovalbumin, weeks 1, 3, 5
Method: (§1) All experiments were carried out in C57BL/6 mice (female, 8-12 weeks of age). The synergistic adjuvant-effect of the QS-21/QS-7 mixtures was assessed by two parameters: (1) the ability of these mixtures to improve antibody titers to a subunit antigen, ovalbumin, in mice; and (2) the ability of these mixtures to improve an ovalbumin-specific cytotoxic T lymphocyte (killer cell) response in mice.
The experimental techniques were the following. The mice were immunized subcutaneously at week 1, 3, and 5 with 0.2 ml of the indicated formulations in phosphate-buffered saline. Mice were immunized in groups of five. Sera and spleens were harvested at weeks 7 to 9. Sera was assayed for anti-ovalbumin antibody response by enzyme immunoassay. Briefly, a 96 well Immulon plate was coated with 10 μg/ml ovalbumin in phosphate-buffered saline (PBS) overnight at 4° C. These plates were blocked with 10% normal goat serum in PBS (diluent) for one hour at room temperature. Serial 1:10 dilutions of serum were made in diluent and were incubated on the plates for one hour at room temperature or overnight at 4° C. An enzyme conjugate of anti-mouse IgG (or anti-mouse IgG subclass) was diluted in diluent and incubated on the plate. A calorimetric enzyme substrate, tetramethylbenzidine, was used to assay for binding of anti-ovalbumin antibody. Spleens from immunized mice were used to assay for the cytotoxic T lymphocyte (CTL) response. The effector cells for the (CTL) assay were splenic mononuclear cells from the harvested spleens. The antigen-positive target cells for the assay were E.G7-OVA cells, which are an MHC class II antigen-negative EL4 mouse cell line, transfected with the ovalbumin gene. […] EL4 cells were used as an ovalbumin-negative target cell line. Prior to assay, splenic mononuclear cells were stimulated with antigen to induce maturation of precursor CTL in the effector cell population. The antigens used for stimulation were mitomycin C treated E.G7-OVA cells (incubated with spleen cells at a ratio of 20:1 spleen cells: E.G7-OVA cells) or denatured ovalbumin (25 μg/ml). […]

ovalbumin [1] = assay: Serum anti-ovalbumin antibody response by enzyme immunoassay after immunization; format: in vivo, C57BL/6 mice; settings: saponin dose 0.625 μg, alone
Method: as §1
The experimental techniques were the following. The mice were immunized subcutaneously at week 1, 3, and 5 with 0.2 ml of the indicated formulations in phosphate-buffered saline. Mice were immunized in groups of five. Sera and spleens were harvested at weeks 7 to 9. Sera was assayed for anti-ovalbumin antibody response by enzyme immunoassay. Briefly, a 96 well Immulon plate was coated with 10 μg/ml ovalbumin in phosphate-buffered saline (PBS) overnight at 4° C. These plates were blocked with 10% normal goat serum in PBS (diluent) for one hour at room temperature. Serial 1:10 dilutions of serum were made in diluent and were incubated on the plates for one hour at room temperature or overnight at 4° C. An enzyme conjugate of anti-mouse IgG (or anti-mouse IgG subclass) was diluted in diluent and incubated on the plate. A calorimetric enzyme substrate, tetramethylbenzidine, was used to assay for binding of anti-ovalbumin antibody. […]

ovalbumin [2] = settings: doses below 2.5 μg, mice; cited from earlier work
ovalbumin [3] = settings: at 2.5 μg or lower, mice; cited from earlier work
[4] = test system: bovine serum albumin and cytochrome b5; settings: mice; cited from earlier work
cytochrome b5 = settings: saponin doses of 20 μg; cited from earlier work
mice = settings: mouse, in vivo; cited from earlier work

Row | Substance | stimulating a CTL response (E.G7-OVA target cells; saponin dose 0.625 μg) | stimulating a CTL response (E.G7-OVA target cells; saponin dose 1.25 μg) | stimulating a CTL response (E.G7-OVA target cells; saponin dose 20 μg) | antibody titer compared with no adjuvant (ovalbumin [1]) | adjuvant for raising an antibody response to ovalbumin (ovalbumin [2]) | CTL response to ovalbumin (ovalbumin [3]) | antibody responses to bovine serum albumin and cytochrome b5 [4] | IgG2a response to cytochrome b5 (cytochrome b5) | toxicity in mice (mice)
1 | QS-21 | ineffective | ineffective | highly effective | neither 10 μg QS-7 or 0.625 μg QS-21, individually, yields a titer that is higher than no adjuvant | ineffective | minimal | stimulate potent antibody responses | stimulate IgG2a response | least toxic
2 | QS-18 |  |  |  |  |  |  | stimulate potent antibody responses | stimulate IgG2a response | 
3 | QS-17 |  |  |  |  |  |  | stimulate potent antibody responses | stimulate IgG2a response | 
